Consider 13 compounds from PubChem BioAssay AID190 (DTP/NCI, 2004).

Where “and” joins values, the source holds several entries; their conditions need not be identical. Identical values can stand only once. Toxic doses and inconclusive results are not listed.

The test deals with AKR/Lw mice, AKR lymphoma ip, median survival T/C. Description: NCI In Vivo Anticancer Drug Screen. Data for tumor model Lymphoma AKR (Transplanted) (intraperitoneal) in AKR/Lw mice. Particulars: endpoint: median survival time, higher = longer survival. How it is done: The antitumor activity of compounds was measured in mice bearing transplantable tumors. Survival or tumor size were measured and the results are expressed as the measurement made in the treated group (T) divided by the measurement made in the vehicle treated control group (C). The tumor model used in this assay is Lymphoma AKR (Transplanted) (intraperitoneal) in AKR/Lw mice

Setting [1] is: dose: 100.0 mg/kg/injection, schedule: Q01DX001 (ip), vehicle: Klucel (hydroxypropylcellulose) (HPC).
Setting [2] is: dose: 200.0 mg/kg/injection, schedule: Q01DX001 (ip), vehicle: Klucel (hydroxypropylcellulose) (HPC).
Where [3] appears, read: dose: 200.0 mg/kg/injection, schedule: Q04DX003 (ip), vehicle: Klucel (hydroxypropylcellulose) (HPC).
[4] abbreviates: dose: 400.0 mg/kg/injection, schedule: Q01DX001 (ip), vehicle: Klucel (hydroxypropylcellulose) (HPC).
The mark [5] stands for this setting: dose: 100.0 mg/kg/injection, schedule: Q01DX001 (ip), vehicle: saline.
[6] abbreviates: dose: 400.0 mg/kg/injection, schedule: Q01DX001 (ip), vehicle: saline.
Where [7] appears, read: dose: 200.0 mg/kg/injection, schedule: Q01DX001 (ip), vehicle: saline.

With `O=NN(CCCl)C(=O)NCCCl`, the T/C was 105 % of control (dose: 0.12 mg/kg/injection, schedule: Q01DX009 (ip), vehicle: saline); 87 % of control and 107 % of control (dose: 0.25 mg/kg/injection, schedule: Q01DX009 (ip), vehicle: saline); 90 % of control and 97 % of control (dose: 0.25 mg/kg/injection, schedule: Q04DX003 (ip), vehicle: saline); 96 % of control (dose: 0.5 mg/kg/injection, schedule: Q04DX004 (ip), vehicle: saline); 108 % of control and 112 % of control (dose: 1.0 mg/kg/injection, schedule: Q04DX004 (ip), vehicle: saline); 107 % of control (dose: 1.5 mg/kg/injection, schedule: Q04DX003 (ip), vehicle: saline). The T/C runs as follows: (dose: 1.5 mg/kg/injection, schedule: Q07DX003 (ip), vehicle: saline) 87 % of control and 118 % of control; (dose: 2.5 mg/kg/injection, schedule: Q04DX003 (ip), vehicle: saline) 93 % of control; (dose: 3.0 mg/kg/injection, schedule: Q01DX001 (ip), vehicle: saline) 100 % of control and 114 % of control; (dose: 3.0 mg/kg/injection, schedule: Q01DX009 (ip), vehicle: saline) 87 % of control; (dose: 3.0 mg/kg/injection, schedule: Q04DX003 (ip), vehicle: saline) 86 % of control; (dose: 3.0 mg/kg/injection, schedule: Q07DX003 (ip), vehicle: saline) 109 % of control and 121 % of control. Besides, the T/C was 98 % of control (dose: 3.13 mg/kg/injection, schedule: Q04DX003 (ip), vehicle: water); 117 % of control (dose: 3.75 mg/kg/injection, schedule: Q01DX001 (ip), vehicle: saline); 153 % of control (dose: 4.0 mg/kg/injection, schedule: Q04DX004 (ip), vehicle: saline); 93 % of control and 100 % of control and 103 % of control (dose: 5.0 mg/kg/injection, schedule: Q01DX001 (ip), vehicle: saline); 333 % of control (dose: 5.0 mg/kg/injection, schedule: Q01DX009 (ip), vehicle: saline); 103 % of control (dose: 5.0 mg/kg/injection, schedule: Q04DX003 (ip), vehicle: saline). Also, the T/C is 103 % of control (dose: 5.0 mg/kg/injection, schedule: Q10DX004 (ip), vehicle: saline); 97 % of control (dose: 6.0 mg/kg/injection, schedule: Q04DX003 (ip), vehicle: saline); 100 % of control and 118 % of control (dose: 6.0 mg/kg/injection, schedule: Q07DX003 (ip), vehicle: saline); 106 % of control (dose: 6.2 mg/kg/injection, schedule: Q01DX001 (ip), vehicle: saline); 124 % of control (dose: 6.25 mg/kg/injection, schedule: Q04DX003 (ip), vehicle: water); 118 % of control (dose: 7.5 mg/kg/injection, schedule: Q01DX001 (ip), vehicle: saline). Besides, the T/C (dose: 8.0 mg/kg/injection, schedule: Q04DX004 (ip), vehicle: saline) is 171 % of control; the T/C (dose: 10.0 mg/kg/injection, schedule: Q01DX009 (ip), vehicle: saline) is 97 % of control; the T/C (dose: 10.0 mg/kg/injection, schedule: Q04DX003 (ip), vehicle: saline) was 106 % of control; the T/C (dose: 10.0 mg/kg/injection, schedule: Q10DX004 (ip), vehicle: saline) is 111 % of control; the T/C (dose: 10.0 mg/kg/injection, schedule: Q14DX003 (ip), vehicle: saline) is 123 % of control; the T/C (dose: 12.5 mg/kg/injection, schedule: Q01DX001 (ip), vehicle: saline) was 118 % of control. Moreover, the T/C by setting is: (dose: 12.5 mg/kg/injection, schedule: Q04DX003 (ip), vehicle: water) 88 % of control; (dose: 15.0 mg/kg/injection, schedule: Q10DX004 (ip), vehicle: saline) 113 % of control; (dose: 15.0 mg/kg/injection, schedule: Q14DX003 (ip), vehicle: saline) 98 % of control; (dose: 16.0 mg/kg/injection, schedule: Q01DX009 (ip), vehicle: saline) 97 % of control; (dose: 16.0 mg/kg/injection, schedule: Q04DX004 (ip), vehicle: saline) 168 % of control; (dose: 20.0 mg/kg/injection, schedule: Q01DX009 (ip), vehicle: saline) 97 % of control. Moreover, the T/C is 101 % of control (dose: 20.0 mg/kg/injection, schedule: Q10DX004 (ip), vehicle: saline); 115 % of control (dose: 20.0 mg/kg/injection, schedule: Q14DX003 (ip), vehicle: saline); 86 % of control (dose: 24.0 mg/kg/injection, schedule: Q01DX001 (ip), vehicle: saline); 108 % of control (dose: 25.0 mg/kg/injection, schedule: Q04DX003 (ip), vehicle: water); 103 % of control (dose: 32.0 mg/kg/injection, schedule: Q04DX004 (ip), vehicle: saline); 54 % of control and 95 % of control (dose: 45.0 mg/kg/injection, schedule: Q01DX001 (ip), vehicle: saline). Besides, the T/C (dose: 60.0 mg/kg/injection, schedule: Q01DX001 (ip), vehicle: saline) was 23 % of control and 86 % of control.

Consider `C1CCN2CC3CC(CN4CCCCC34)C2C1` (centres undefined), for which the T/C (dose: 10.0 mg/kg/injection, schedule: Q01DX001 (ip), vehicle: saline) is 100 % of control; the T/C (dose: 20.0 mg/kg/injection, schedule: Q01DX001 (ip), vehicle: saline) is 100 % of control; the T/C (dose: 40.0 mg/kg/injection, schedule: Q01DX001 (ip), vehicle: saline) was 100 % of control.

As for `COc1ccccc1Oc1ccc(N=Cc2ccc(C)cc2)cc1`, the T/C under setting [1] is 93 % of control; the T/C (dose: 100.0 mg/kg/injection, schedule: Q04DX003 (ip), vehicle: Klucel (hydroxypropylcellulose) (HPC)) is 93 % of control; the T/C under setting [2] was 100 % of control; the T/C under setting [3] was 97 % of control; the T/C under setting [4] is 93 % of control; the T/C (dose: 400.0 mg/kg/injection, schedule: Q04DX003 (ip), vehicle: Klucel (hydroxypropylcellulose) (HPC)) is 102 % of control.

`CCOC(=O)c1ccc(NCC(C)(C)[N+](=O)[O-])cc1`: the T/C was 88 % of control under setting [5] and 88 % of control under setting [6].

Turning to `CC(/C=N/N=C(N)N)=N\N=C(N)N`, the T/C (dose: 1.5 mg/kg/injection, schedule: Q01DX015 (ip), vehicle: saline) was 87 % of control; the T/C (dose: 5.0 mg/kg/injection, schedule: Q01DX015 (ip), vehicle: saline) is 90 % of control; the T/C (dose: 6.25 mg/kg/injection, schedule: Q01DX015 (ip), vehicle: saline) was 96 % of control; the T/C (dose: 10.0 mg/kg/injection, schedule: Q01DX015 (ip), vehicle: saline) was 90 % of control.

Turning to `O=c1cc(-c2ccccc2)nc(Nc2nc3ccc([N+](=O)[O-])cc3[nH]2)[nH]1`, the T/C is 96 % of control under setting [1], 110 % of control under setting [2] and 96 % of control under setting [4].

With `COc1cc([C@@H]2c3cc4c(cc3[C@H](O)[C@H]3COC(=O)[C@@H]23)OCO4)cc(OC)c1OC`, the T/C is, setting by setting: (dose: 6.0 mg/kg/injection, schedule: Q01DX009 (ip), vehicle: Klucel (hydroxypropylcellulose) (HPC)) 110 % of control; (dose: 12.0 mg/kg/injection, schedule: Q01DX009 (ip), vehicle: Klucel (hydroxypropylcellulose) (HPC)) 120 % of control.

`C1CC[N+]2=C(C1)OCCC2`: the T/C is 94 % of control (dose: 50.0 mg/kg/injection, schedule: Q01DX001 (ip), vehicle: saline); 91 % of control under setting [5]; 97 % of control under setting [7].

Take `C/C=C(/C)N(C(C)=O)N(C(C)=O)c1ccc([N+](=O)[O-])cc1[N+](=O)[O-]`: the T/C by setting is: under setting [1], 93 % of control; under setting [2], 93 % of control; under setting [3], 93 % of control; under setting [4], 93 % of control.

For `CC(=O)N(C(C)=O)c1ccc(C)cc1`, the T/C by setting is: under setting [5], 93 % of control; under setting [7], 104 % of control; under setting [6], 104 % of control.

For the compound `O=C(Nc1ccccc1)Oc1ccc(Cl)cc1`, the T/C was 100 % of control under setting [1], 100 % of control under setting [2] and 106 % of control under setting [4].

On to `OC1(C#CC2(O)c3ccccc3-c3ccccc32)c2ccccc2-c2ccccc21`, for which the T/C runs as follows: under setting [1], 105 % of control; under setting [2], 108 % of control; under setting [4], 102 % of control.

With `COc1ccc(-n2c(=S)[nH]c3ccccc3c2=O)cc1`, the T/C is 88 % of control (dose: 75.0 mg/kg/injection, schedule: Q04DX003 (ip), vehicle: Klucel (hydroxypropylcellulose) (HPC)); 106 % of control under setting [1]; 86 % of control (dose: 150.0 mg/kg/injection, schedule: Q04DX003 (ip), vehicle: Klucel (hydroxypropylcellulose) (HPC)); 87 % of control under setting [2]; 90 % of control under setting [4].
